Entries after “also recorded” stand apart in the source; their conditions may differ. Read-outs that look alike come from different tables or passages of the source.
Tests used:
human keratinocytes [1] = experiment: Proliferation of adult human keratinocytes in culture (neutral red dye assay, 4 days); format: cell-based
Description: The use of proliferating human keratinocytes in culture as a test system for determining the utility of a compound for treating hyperproliferative and inflammatory disorders of the skin is well documented (Kitanot et at., Euro. J Clin. Investig. 21:53-58 (1991) and West, et at., J. Investigative Derm. 99(1):95-100 (1992).)
Cell number was assessed at time zero (before treatment) and at the end of the treatment period by the neutral red dye assay. See Kitano, et at., Euro. J. Clin. Investig. 21:53-58 (1991) and West, et at., J. Investigative Derm. 99(1):95-100 (1992). Each condition was performed in 12 replicates, on keratinocytes from three subjects and the results were combined from the three subjects. […] The coordinate plots the cell growth of the keratinocytes as the percentage of controls.

PPARγ [2] = details: cited from earlier work
PPARγ [3] = details: cited from earlier work; remark: listed apart in the source
human keratinocytes [4] = experiment: Proliferation of human keratinocytes by PMS/MTS (CellTiter 96 AQueous) assay; format: cell-based
Description: Inhibition of proliferating human keratinocytes in culture have been utilized as a system for screening and identifying potential therapeutic agents such as vitamin D derivatives (Kitano et at., 1991) and retinoids (West et at., 1992), for the treatment of inflammatory, proliferative skin diseases (e.g., psoriasis vulgaris, acne vulgaris, hidradenitis suppurativa).
Human keratinocytes were obtained from Clonetics (San Diego, California) and subcultured into a proprietary (Clonetics) medium optimized for cell growth and maintenance. Proliferation of keratinocytes was determined using MTS, 3-(4,5-dimethylthiazol-2-yl)-5-(3-carboxymethoxyphenyl)-2-(4-sulfophen 1)-2H-tetrazolium (PMS/MTS) as described in the CellTiter 96 AQueous Non-Radioactive Cell Proliferation Assay (Promega Inc.). Only viable cells reduce MTS to the soluble formazan, and viable cell numbers correlate with optical density (Cory et at., 1991).
Cells were seeded at 2 to 4×10^4 cells/ml of growth medium in 24 well microtiter plates. Twenty-four hours post-plating cells were treated with vehicle alone (0.1% DMSO) or various concentrations of 15-deoxy-PG J2 was added to each well (quadruplicate samples per concentration) for an additional 4 days. At each time point 100 ul of the PMS/MTS assay mix is added and absorbance at 490 nm was recorded four hours later with a microplate spectrophotometer (BioTek Instrument Co).

Cc1c(C)c2c(c(C)c1O)CCC(C)(COc1ccc(CC3SC(=O)NC3=O)cc1)O2 (stereo not shown) [troglitazone]
inhibition of keratinocyte proliferation (in words) (human keratinocytes [1]; 0.1, 1.0 and 10 μM, 4 days, compared with vehicle 0.1% DMSO): dose-dependent inhibition of keratinocyte proliferation; also recorded: dose-dependent and saturable; also recorded: dose response inhibition of cell growth | IC50 (human keratinocytes [1]; Homo sapiens, Keratinocyte, 96 h, read-out: IC50, antiproliferative effect in human keratinocytes): 2.1 µM

CC(C)(Oc1ccc(C2CC2(Cl)Cl)cc1)C(=O)O (stereo not shown) [ciprofibrate]
activation of PPARγ (in words) (PPARγ [2]): known to activate PPARγ

CCCCCC=CC=C1C(=O)C=CC1CC=CCCCC(=O)O (stereo not shown) [15-deoxy-PG J2, 15-deoxy-A-12,14-prostaglandin J2]
activation of PPARγ (in words) (PPARγ [3]): activate PPARγ to varying degrees | inhibition at 2 µM (human keratinocytes [4]; Homo sapiens, Keratinocyte, 96 h, 2 uM, 4 days): 22% | inhibition at 4 µM (human keratinocytes [4]; Homo sapiens, Keratinocyte, 96 h, 4 uM, 4 days): 51% | inhibition at 8 µM (human keratinocytes [4]; Homo sapiens, Keratinocyte, 96 h, 8 uM, 4 days): 76% | inhibition at 20 µM (human keratinocytes [4]; Homo sapiens, Keratinocyte, 96 h, 20 uM, 4 days): 100% | IC50 (human keratinocytes [4]; Keratinocyte, 96 h, human keratinocytes, 4 days treatment, read-out: concentration for half-maximal inhibition of growth (IC50)): ~4 µM | % inhibition of proliferation of human keratinocytes (human keratinocytes [4]; concentration not printed in the line (first line of Table 1), 4 days): 5% | inhibition of proliferation of human keratinocytes (in words) (human keratinocytes [4]; cultured human keratinocytes, 4 days): inhibits the proliferation of human keratinocytes in culture; also recorded: dose-dependent inhibition of proliferation

CCOC(=O)C(C)(C)Oc1ccc(Cl)cc1 [clofibrate]
activation of PPARγ (in words) (PPARγ [2]): known to activate PPARγ

CC(C)(Oc1ccc(CCNC(=O)c2ccc(Cl)cc2)cc1)C(=O)O [bezofibrate]
activation of PPARγ (in words) (PPARγ [2]): known to activate PPARγ

— patent US5981586A, “Methods for treating proliferative and inflammatory skin diseases” (priority 1998, dated 1999)
